pIC50: −log10 of the molar value. Structures can show the parent of a compound that is named as a salt. Where two headings read alike, the source gives them in different places.
Assays:
[1] = target: T1, monoamine oxidase (type A, tryptamine substrate) (Rattus norvegicus, UniProt P21396); test: In-vitro monoamine oxidase inhibition, [14C]tryptamine as substrate; type: biochemical; conditions: rat brain monoamine oxidase extract, 37° C., 20 minutes, pH 7.4, read-out: I.C.50 -value using as substrate [14C]tryptamine
T1 sequence (P21396 1-526): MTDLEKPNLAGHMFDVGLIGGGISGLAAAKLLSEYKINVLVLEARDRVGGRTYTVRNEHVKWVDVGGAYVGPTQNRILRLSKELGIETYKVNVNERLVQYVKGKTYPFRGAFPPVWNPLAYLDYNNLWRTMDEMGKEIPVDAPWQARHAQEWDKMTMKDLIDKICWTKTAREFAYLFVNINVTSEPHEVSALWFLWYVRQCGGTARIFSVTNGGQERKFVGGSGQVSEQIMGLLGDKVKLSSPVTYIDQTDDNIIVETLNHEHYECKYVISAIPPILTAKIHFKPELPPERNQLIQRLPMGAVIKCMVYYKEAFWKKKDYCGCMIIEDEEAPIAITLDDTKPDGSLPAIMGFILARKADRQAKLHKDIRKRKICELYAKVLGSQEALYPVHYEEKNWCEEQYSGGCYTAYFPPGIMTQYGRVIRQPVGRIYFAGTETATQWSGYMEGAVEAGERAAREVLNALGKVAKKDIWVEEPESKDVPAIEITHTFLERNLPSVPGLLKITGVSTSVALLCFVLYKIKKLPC

[2] = target: T2, monoamine oxidase (type B, β-phenylethylamine substrate) (Rattus norvegicus, UniProt P19643); test: In-vitro monoamine oxidase inhibition, [14C]phenylethylamine hydrochloride as substrate; type: biochemical; conditions: rat brain monoamine oxidase extract, 37° C., 20 minutes, pH 7.4, read-out: I.C.50 -value using as substrate [14C]phenylethylamine.HCl
T2 sequence (P19643 1-520): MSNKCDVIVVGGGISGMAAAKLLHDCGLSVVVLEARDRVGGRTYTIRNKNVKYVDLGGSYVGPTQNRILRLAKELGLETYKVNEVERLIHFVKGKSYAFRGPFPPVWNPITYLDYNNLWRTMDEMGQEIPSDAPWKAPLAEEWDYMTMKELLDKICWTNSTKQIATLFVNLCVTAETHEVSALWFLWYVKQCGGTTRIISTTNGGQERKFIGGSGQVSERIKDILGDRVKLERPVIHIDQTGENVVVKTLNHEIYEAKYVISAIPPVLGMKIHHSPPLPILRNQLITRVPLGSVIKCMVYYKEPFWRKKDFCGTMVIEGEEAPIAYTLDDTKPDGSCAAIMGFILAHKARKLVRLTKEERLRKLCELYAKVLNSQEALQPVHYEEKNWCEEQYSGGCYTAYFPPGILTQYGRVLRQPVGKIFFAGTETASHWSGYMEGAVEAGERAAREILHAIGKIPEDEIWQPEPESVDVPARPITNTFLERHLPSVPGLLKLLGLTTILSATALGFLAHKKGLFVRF

| Structure (SMILES) | pIC50 ([1]; Table 2) | pIC50 ([2]; Table 2) | pIC50 ([1]; Table 1) | pIC50 ([2]; Table 1) |
| --- | --- | --- | --- | --- |
| CC[N+]1=C2Sc3ccc(NC(C)C)cc3N2CCC1 | 7.96 | 4.35 |  |  |
| C=CC[N+]1=C2Sc3ccc(CCCCCCCCC)cc3N2CCC1 | 6.60 | 6.42 |  |  |
| Cc1ccc(C(C)(C)C)c2c1N1CCCN=C1S2 [6-CH3,9-C(CH3)3] |  |  | 7.19 | < 4.00 |
| O=C(c1ccccc1)c1ccc2c(c1)N1CCCN=C1S2 [7-COC6 H5] |  |  | 6.92 | 5.60 |
| COc1ccc(CNc2ccc3c(c2)N2CCCN=C2S3)cc1 [7-NHCH2 (4-OCH3C6 H4)] |  |  | 6.60 | 7.19 |
| Cc1ccc(CNc2ccc3c(c2)SC2=NCCCN23)cc1 [8-NHCH2 (4-CH3C6 H4)] |  |  | 6.00 | 7.70 |
| COc1cc(CNc2ccc3c(c2)SC2=NCCCN23)cc(OC)c1OC [8-NHCH2 [3,4,5-(OCH3)3C6 H2]] |  |  | 4.70 | 7.47 |
| CCOC(=O)C(=CNc1ccc2c(c1)SC1=NCCCN12)C(=O)OCC [8-NHCHC(COOEt)2] |  |  | 4.70 | 6.80 |
| CC(C)Nc1ccc2c(c1)SC1=NCCCN12 [8-NHi.C3 H7] |  |  | 7.05 | 4.70 |
| NC(=O)Nc1ccc2c(c1)N1CCCN=C1S2 [Example 7-NHCONH2, N-(3,4-dihydro-2H-pyrimido[2,1-b]benzothiazol-7-yl)urea] |  |  | 6.07 | 4.92 |
| Nc1cccc2c1SC1=NCCCN12 [Example 9-NH2, 3,4-dihydro-2H-pyrimido[2,1-b]benzothiazol-9-amine dihydrochloride] |  |  | 6.46 | 4.05 |

Other lines, results leading:

| pIC50 ([1]; Table 2) | pIC50 ([2]; Table 2) | pIC50 ([1]; Table 1) | pIC50 ([2]; Table 1) | Structure (SMILES) |
| --- | --- | --- | --- | --- |
|  |  | 7.52 | 5.05 | c1ccc2cc3c(cc2c1)SC1=NCCCN13 [7,8-(CHCHCHCH)] |
|  |  | 7.70 | 5.92 | CCCc1ccc2c(c1)N1CCCN=C1S2 [7-C3 H7] |
|  |  | 8.47 | 6.52 | CCC(CC)Nc1ccc2c(c1)N1CCCN=C1S2 [7-NHCH(C2 H5)2, N-(1-ethylpropyl)-3,4-dihydro-2H-pyrimido[2,1-b]benzothiazol-7-amine] |
|  |  | 8.30 | 6.92 | c1cc2c(cc1NC1CCCC1)N1CCCN=C1S2 [7-NHc.C5 H9] |
|  |  | 7.49 | 6.59 | CCCCc1ccc2c(c1)SC1=NCCCN12 [8-C4 H9] |
|  |  | 8.07 | 7.30 | c1cc2c(cc1C1CCCCC1)SC1=NCCCN12 [8-c.C6 H11] |
|  |  | 8.52 | 4.00 | CCNc1cccc2c1SC1=NCCCN12 [9-NHC2 H5, N-ethyl-3,4-dihydro-2H-pyrimido[2,1-b]benzothiazol-9-amine] |

From patent US4471117A, “3,4-Dihydro-2H-pyrimido(2,1-b)benzothiazoles” (Janssen Pharmaceutica N.V., priority 1980, dated 1984)
